Laboratory results as given in patent publication US6322532A, “Sonophoresis method and apparatus” (3M Innovative Properties Company, priority 1999, dated 2001).

Experiment: Franz diffusion cell permeation of salicylic acid across cadaver skin with/without flexure mode sonophoresis transducer
Parameters: species or system human
Procedure: A similar experiment to that described in Example 1 was carried out using salicylic acid. […] About 20 ml donor solution (ppb) with excess (beyond solubility levels) of salicylic acid was added to the upper portion of the Franz cells atop the cadaver skin.

## O=C(O)c1ccccc1O [salicylic acid]
Active cells, about 2 W/cm^2, about 27 kHz, about 200 V (rms), continuous duty cycle, about 7 cm^2 cadaver skin, first few hours
  average sonophoretic drug flux: about 700 micrograms/cm^2 /hr
Four passive cells, no sonophoresis transducer, 2 cm^2 cadaver skin, 10 ml receptor fluid, 5 hr experiment
  average passive drug flux: about 200 micrograms/cm^2 /hr
